{"source": "patent US20240239795A1", "about": "“NOVEL AZAINDOLE DERIVATIVES AS ANTIVIRAL AGENTS” (Centre National de la Recherche Scientifique, priority 2021, published 2024)", "key": {"[1]": {"test_system": "MAYV virus, TRVL4576 strain", "assay": "Antiviral activity against the Mayaro virus in HeLa cells (luciferase reporter)", "details": "24 h, read-out: IC50 MAYV"}, "[2]": {"test_system": "WNV virus, Kunjin strain (KUNV)", "assay": "Antiviral activity against the WNV virus Kunjin strain in HeLa cells (nanoluciferase reporter)", "type": "cell-based", "details": "West Nile virus, KUNV-luciferase reporter virus, MOI=0.1, 24 h"}, "[3]": {"test_system": "ZIKV BeH8 strain", "assay": "Antiviral activity against the Zika virus in HeLa cells (viral RNA by qRT-PCR)", "details": "for pIC50: Zika virus, HeLa, 24 h, read-out: IC50 ZIKV"}, "[4]": {"test_system": "CHIKV virus, LR-OPY1 strain", "assay": "Antiviral activity against the Chikungunya virus in HeLa cells (luciferase/GFP reporter)", "details": "for pIC50: Chikungunya virus, HeLa, 24 h, read-out: IC50 CKV"}, "[5]": {"test_system": "SARS-COV2 virus, BetaCoV/France/IDF0371/2020", "assay": "Antiviral activity against SARS-COV2 coronavirus in VeroE6 cells (viral RNA by qRT-PCR)", "type": "cell-based", "details": "1.25 μM, 24 h"}}, "note": "pIC50: −log10 of the molar value."}
{"smiles": "Cc1ccc(C(=O)Nc2cccc(-c3c[nH]c4ncc(-c5ccccc5)cc34)c2)c(=O)n1-c1ccc(F)cc1", "note": "[Compound 4, 1-(4-fluorophenyl)-6-methyl-2-oxo-1,2-dihydro-pyridine-3-carboxylic acid [3-(5-phenyl-1H-pyrrolo[2,3-b]pyridin-3-yl)-phenyl]-amide]", "values": [{"measurement": "pIC50", "setting": "[1]", "result": 6.50}, {"measurement": "pIC50", "setting": "[2]", "result": 5.88}, {"measurement": "concentration that prevents infection of the Hela cells by the strain ZIKV BeH-8", "setting": "[3]; HeLa cells, MOI=0.1, 24 h", "result": "greater than or equal to 100 nM"}, {"measurement": "pIC50", "setting": "[3]", "result": 6.54}, {"measurement": "pIC50", "setting": "[4]", "result": 6.61}, {"measurement": "concentration that prevents infection of the Hela cells by the Chikungunya virus", "setting": "[4]; HeLa cells, MOI=0.1, 24 h", "result": "greater than or equal to 100 nM"}]}
{"smiles": "O=C(Nc1ccc(F)cc1)C1(C(=O)Nc2cccc(-c3c[nH]c4ncc(-c5ccccc5)cc34)c2)CC1", "note": "[Compound 5, Cyclopropane-1,1-dicarboxylic acid (4-fluoro-phenyl)-amide [3-(5-phenyl-1H-pyrrolo[2,3-b]pyridin-3-yl)-phenyl]-amide]", "values": [{"measurement": "effect on infection of the cells by the SARS-COV2 virus", "setting": "[5]", "result": "reduces the infection"}]}
{"smiles": "Cc1ccc(C(=O)Nc2ccc(F)c(-c3c[nH]c4ncc(-c5ccccc5)cc34)c2)c(=O)n1-c1ccc(F)cc1", "note": "[Compound 15, 1-(4-fluorophenyl)-6-methyl-2-oxo-1,2-dihydro-pyridine-3-carboxylic acid [4-fluoro-3-(5-phenyl-1H-pyrrolo[2,3-b]pyridin-3-yl)-phenyl]-amide]", "values": [{"measurement": "pIC50", "setting": "[2]", "result": 6.03}]}
{"smiles": "Nc1nc(Nc2ccc3c(c2)CC[C@@H](N2CCCC2)CC3)nn1-c1cc2c(nn1)-c1ccccc1CCC2", "note": "[R428/Bemcentinib, reference compound]", "values": [{"measurement": "pIC50", "setting": "[3]", "result": 6.55}, {"measurement": "pIC50", "setting": "[4]", "result": 6.62}]}
